# Results as given in ChEMBL document CHEMBL1795339, “Novel purine-based fluoroaryl-1,2,3-triazoles as neuroprotecting agents: synthesis, neuronal cell culture investigations, and CDK5 docking studies” (Bioorg Med Chem Lett, 2011).
# Active and inactive are the calls of the source. The calls are words filed in the database; no cut-off is given here.
# Test system: Hippocampal neuron
# Test: Neuroprotective activity against Amyloid beta-induced mouse hippocampal neuronal death at 1 uM pretreated for 1 hr before Amyloid beta treatment measured after 48 hrs using propidium iodide staining by fluorescence […] microscopy
# Type: functional, tissue-based
# Details: Hippocampus
row,SMILES,Activity
1,Fc1cccc(F)c1Cn1cc(Cn2cnc3c(NCc4ccccc4)nc(Cl)nc32)nn1,Active
2,Clc1nc(NCc2ccccc2)c2ncn(Cc3cn(Cc4ccccc4)nn3)c2n1,Active
3,CN1CC[C@H](c2c(O)cc(O)c3c(=O)cc(-c4ccccc4Cl)oc23)[C@H](O)C1,Active
4,Fc1c(F)c(F)c(Cn2cc(Cn3cnc4c(NCc5ccccc5)nc(Cl)nc43)nn2)c(F)c1F,inactive
5,CC[C@H](CO)Nc1nc(NCc2ccccc2)c2ncn(C(C)C)c2n1,Active
6,Fc1ccccc1Cn1cc(Cn2cnc3c(NCc4ccccc4)nc(Cl)nc32)nn1,Active
